Measurements published in patent US20230278972A1, “SUBSTITUTED HALOALKYL SULFONANILIDE HERBICIDES” (FMC Corporation, priority 2020, published 2023).

Legend:
Type in all cases: in vivo
[1] = test system: pigweed (Amaranthus retroflexus); assay: Test A postemergence, pigweed; conditions: Postemergence, 0 to 100 scale (0 no effect, 100 complete control); for Pigweed plant response rating: 500 g ai/ha, visual injury vs untreated controls after approx. 10 days
Outline: (§1)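 Compounds in non-phytotoxic solvent with surfactant. Soil: loam/sand. Preemergence via directed soil spray after seeding; postemergence on seedlings 2–10 cm, one- to two-leaf.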

[2] = test system: barnyardgrass (Echinochloa crus-galli); assay: Test A postemergence, barnyardgrass; conditions: Postemergence, 0 to 100 scale (0 no effect, 100 complete control); for Barnyardgrass plant response rating: 500 g ai/ha, visual injury vs untreated controls after approx. 10 days
Outline: as §1

[3] = test system: barnyardgrass (Echinochloa crus-galli); assay: Test A preemergence, barnyardgrass; conditions: Preemergence; for Plant response rating, Barnyardgrass: 0 to 100 scale (0 no effect, 100 complete control); for Barnyardgrass plant response rating: 125 g ai/ha, visual injury on 0 to 100 scale (0 no effect, 100 complete control), approximately 10 days
Outline: as §1

corn (Zea mays) = assay: Test A postemergence, corn; conditions: Postemergence, 0 to 100 scale (0 no effect, 100 complete control); for Corn plant response rating: 500 g ai/ha, visual injury vs untreated controls after approx. 10 days
Outline: as §1

[4] = test system: blackgrass (Alopecurus myosuroides); assay: Test A postemergence, blackgrass; conditions: Postemergence, 0 to 100 scale (0 no effect, 100 complete control); for Blackgrass plant response rating: 500 g ai/ha, visual injury vs untreated controls after approx. 10 days
Outline: as §1

[5] = test system: ragweed (common ragweed, Ambrosia artemisiifolia); assay: Test A postemergence, ragweed; conditions: Postemergence, 0 to 100 scale (0 no effect, 100 complete control); for Ragweed plant response rating: 500 g ai/ha, visual injury vs untreated controls after approx. 10 days
Outline: as §1

[6] = test system: wheat (Triticum aestivum); assay: Test A postemergence, wheat; conditions: Postemergence, 0 to 100 scale (0 no effect, 100 complete control); for Wheat plant response rating: 500 g ai/ha, visual injury vs untreated controls after approx. 10 days
Outline: as §1

kochia (Bassia scoparia) [7] = assay: Test A postemergence, kochia; conditions: Postemergence, 0 to 100 scale (0 no effect, 100 complete control); for Kochia plant response rating: 500 g ai/ha, visual injury vs untreated controls after approx. 10 days
Outline: as §1

[8] = test system: Ryegrass, Italian (Italian ryegrass, Lolium multiflorum); assay: Test A postemergence, Ryegrass, Italian; conditions: Postemergence, 0 to 100 scale (0 no effect, 100 complete control); for Ryegrass, Italian plant response rating: 500 g ai/ha, visual injury vs untreated controls after approx. 10 days
Outline: as §1

[9] = test system: Foxtail, Giant (giant foxtail, Setaria faberi); assay: Test A preemergence, Foxtail, Giant; conditions: Preemergence; for Plant response rating, Foxtail, Giant: 0 to 100 scale (0 no effect, 100 complete control); for Foxtail, Giant plant response rating: 125 g ai/ha, visual injury on 0 to 100 scale (0 no effect, 100 complete control), approximately 10 days
Outline: as §1

kochia (Bassia scoparia) [10] = assay: Test A preemergence, kochia; conditions: Preemergence; for Plant response rating, Kochia: 0 to 100 scale (0 no effect, 100 complete control); for Kochia plant response rating: 125 g ai/ha, visual injury on 0 to 100 scale (0 no effect, 100 complete control), approximately 10 days
Outline: as §1

[11] = test system: galium (catchweed bedstraw, Galium aparine); assay: Test A postemergence, galium; conditions: Postemergence, 0 to 100 scale (0 no effect, 100 complete control); for Galium plant response rating: 500 g ai/ha, visual injury vs untreated controls after approx. 10 days
Outline: as §1

[12] = test system: pigweed (Amaranthus retroflexus); assay: Test A preemergence, pigweed; conditions: for Plant response rating, Pigweed: 0 to 100 scale (0 no effect, 100 complete control); for Pigweed plant response rating: 125 g ai/ha, visual injury on 0 to 100 scale (0 no effect, 100 complete control), approximately 10 days
Outline: as §1

[13] = test system: ragweed (common ragweed, Ambrosia artemisiifolia); assay: Test A preemergence, ragweed; conditions: Preemergence; for Plant response rating, Ragweed: 0 to 100 scale (0 no effect, 100 complete control); for Ragweed plant response rating: 125 g ai/ha, visual injury on 0 to 100 scale (0 no effect, 100 complete control), approximately 10 days
Outline: as §1

[14] = test system: Foxtail, Giant (giant foxtail, Setaria faberi); assay: Test A postemergence, Foxtail, Giant; conditions: Postemergence, 0 to 100 scale (0 no effect, 100 complete control); for Foxtail, Giant plant response rating: 500 g ai/ha, visual injury vs untreated controls after approx. 10 days
Outline: as §1

[15] = test system: Ryegrass, Italian (Italian ryegrass, Lolium multiflorum); assay: Test A preemergence, Ryegrass, Italian; conditions: Preemergence; for Plant response rating, Ryegrass, Italian: 0 to 100 scale (0 no effect, 100 complete control); for Ryegrass, Italian plant response rating: 125 g ai/ha, visual injury on 0 to 100 scale (0 no effect, 100 complete control), approximately 10 days
Outline: as §1

[16] = 125 g ai/ha, visual injury approx. 10 days
[17] = 31 g ai/ha, visual injury, approx. 10 days

Compound | Plant response rating, Pigweed [1, 16] | Plant response rating, Barnyardgrass [2, 16] | Barnyardgrass plant response rating [3] | Plant response rating, Corn (corn (Zea mays); [16]) | Plant response rating, Blackgrass [4, 16] | Plant response rating, Ragweed [5, 16] | Plant response rating, Wheat [6, 16] | Plant response rating, Kochia (kochia (Bassia scoparia) [7]; [16]) | Plant response rating, Ryegrass, Italian [8, 16] | Foxtail, Giant plant response rating [9] | Kochia plant response rating (kochia (Bassia scoparia) [10]) | Plant response rating, Galium [11, 16] | Pigweed plant response rating [12] | Ragweed plant response rating [13] | Plant response rating, Foxtail, Giant [14, 16] | Ryegrass, Italian plant response rating [15] | Pigweed plant response rating [1] | Barnyardgrass plant response rating [2] | Plant response rating, Barnyardgrass ([3]; 500 g ai/ha) | Corn plant response rating (corn (Zea mays)) | further results
COC1CCCN(C(=O)c2cc(N(C(C)=O)S(=O)(=O)C(F)(F)F)c(C)cc2C)C1 (stereo not drawn) [Compound 93] | 50 | 60 | 80 | 20 | 70 | 30 | 60 | 30 | 20 | 80 | 50 | 80 | 100 | 70 | 10 | 80 |  |  |  |  | Plant response rating, Pigweed ([1]; 31 g ai/ha): 30; Plant response rating, Barnyardgrass ([2]; 31 g ai/ha): 0; Plant response rating, Barnyardgrass [3, 17]: 0; Plant response rating, Corn (corn (Zea mays); 31 g ai/ha): 0; Plant response rating, Blackgrass ([4]; 31 g ai/ha): 20; Plant response rating, Ragweed ([5]; 31 g ai/ha): 30; Plant response rating, Wheat ([6]; 31 g ai/ha): 30; Plant response rating, Kochia (kochia (Bassia scoparia) [7]; 31 g ai/ha): 10; Plant response rating, Ryegrass, Italian ([8]; 31 g ai/ha): 0; Plant response rating, Foxtail, Giant [9, 17]: 60; Plant response rating, Kochia (kochia (Bassia scoparia) [10]; [17]): 0; Plant response rating, Galium ([11]; 31 g ai/ha): 80; Plant response rating, Pigweed [12, 17]: 50; Plant response rating, Ragweed [13, 17]: 0; Plant response rating, Foxtail, Giant ([14]; 31 g ai/ha): 0; Plant response rating, Ryegrass, Italian [15, 17]: 0
Cc1cc(C)c(C2=NOC3(CCC4(CC3)OCCO4)C2)cc1NS(=O)(=O)C(F)(F)F [Compound 135] |  | 80 | 100 | 0 | 20 |  |  | 50 |  | 100 | 80 | 90 | 60 | 10 | 90 | 100 | 70 | 90 | 100 | 80 | Plant response rating, Pigweed ([1]; 125 g ai/ha): 80; Blackgrass plant response rating [4]: 60; Plant response rating, Ragweed ([5]; 125 g ai/ha): 20; Ragweed plant response rating [5]: 80; Plant response rating, Wheat ([6]; 125 g ai/ha): 0; Wheat plant response rating [6]: 70; Kochia plant response rating (kochia (Bassia scoparia) [7]): 70; Plant response rating, Ryegrass, Italian ([8]; 125 g ai/ha): 0; Ryegrass, Italian plant response rating [8]: 80; Plant response rating, Foxtail, Giant ([9]; 500 g ai/ha): 100; Plant response rating, Kochia (kochia (Bassia scoparia) [10]; 500 g ai/ha): 100; Galium plant response rating [11]: 90; Plant response rating, Pigweed ([12]; 500 g ai/ha): 100; Plant response rating, Ragweed ([13]; 500 g ai/ha): 80; Foxtail, Giant plant response rating [14]: 90; Plant response rating, Ryegrass, Italian ([15]; 500 g ai/ha): 100
Cc1cc(C)c(N(S(=O)(=O)C(F)(F)F)S(=O)(=O)C(F)(F)F)cc1C1=NOC(C(C)(C)C)C1 (stereo not drawn) [Compound 127] | 0 | 0 | 50 | 0 | 20 | 20 | 0 | 10 | 40 | 20 | 80 | 20 | 20 | 0 | 0 | 60 | 40 | 70 | 90 | 20 | Blackgrass plant response rating [4]: 20; Ragweed plant response rating [5]: 50; Wheat plant response rating [6]: 0; Kochia plant response rating (kochia (Bassia scoparia) [7]): 40; Ryegrass, Italian plant response rating [8]: 50; Plant response rating, Foxtail, Giant ([9]; 500 g ai/ha): 90; Plant response rating, Kochia (kochia (Bassia scoparia) [10]; 500 g ai/ha): 80; Galium plant response rating [11]: 90; Plant response rating, Pigweed ([12]; 500 g ai/ha): 40; Plant response rating, Ragweed ([13]; 500 g ai/ha): 60; Foxtail, Giant plant response rating [14]: 0; Plant response rating, Ryegrass, Italian ([15]; 500 g ai/ha): 80
